Measurements published in publication PMC7367873, “Dissecting the sequence determinants for dephosphorylation by the catalytic subunits of phosphatases PP1 and PP2A” (Nature Communications, 2020).

How the values were obtained:
[1] = system: PP1c/PP2Ac; assay: PP1c versus PP2Ac specificity of p-sites (pairwise comparison / hierarchical clustering of phosphoproteomic data); assay type: biochemical, human; details: for share of substrates specific to the phosphatase: hierarchical clustering; for number of specific sequences (cluster size): hierarchical clustering after one-way ANOVA
Method: (§1) For phosphoproteomics, HeLa Kyoto cells were incubated with 20 nM Calyculin A (CST, #9902) for 10–15 min. This time point was determined empirically to yield maximal phosphatase inhibition without cells showing pleiotropic effects. Subsequently, cells were placed on ice and washed twice with cold PBS and scraped in lysis buffer (100 mM NaCl, 10 mM Tris, 0.1% IGEPAL, 1 mM EDTA, 1 mM EGTA, 20 nM Calyculin A, 1x cOmplete Mini protease inhibitor cocktail (Sigma), 1 mM DTT, 1 mM MnCl2, pH 7.5). After 10 pushes through an injection needle (21 G, BD), lysate was cleared from the insoluble fraction by centrifugation (10 min, 10^4 rcf, 4 °C). Protein concentration was then determined by a Bradford Assay and equal amounts of 1 mg total protein were incubated with recombinant PP1c/PP2Ac or buffer at a final phosphatase concentration of 1 µM in a total volume of 200 µL for 1 h at 30 °C. Lysates were then immediately placed on ice. PhosStop […] (Roche) was added and proteins were denatured by adding urea to a final concentration of 8 M taking into account the volume increase. Samples were then snap-frozen in liquid nitrogen for storage and subsequent MS analysis.
Downstream analysis of the phosphoproteomic datasets was carried out using the software tool Perseus[66]. For analysis of phosphoproteomic experiments, row-wise, median-normalized data (see previous section) was linked to known regulatory sites by PhosphoSitePlus entries and categorical columns for treatments were assigned. Reverse peptides and potential contaminants were filtered. Next, categorical columns for biological functions and treatments were assigned. TMT reporter intensities were then transformed into log2. At this point, all data were then filtered for valid values in all three replicates of at least one condition. Next, the distribution of TMT reporter intensities was assessed visually by plotting count-based histogramms and in a multiscatter plot using the Pearson correlation as an estimate of reproducibility. Next, NA (=not available: missing) values were replaced by imputation from a normal distribution (width 0.3, down-shift 1.8, per column). The data quality was routinely assessed by two means: First, by plotting a histogram of peptide length vs. counts and visualization of imputed values to confirm a normal distribution of the data, and secondly by principal component analysis (default settings in Perseus) to judge the sample grouping.
For hierarchical clustering, the results of the one-way ANOVA were processed for two more steps in Perseus: first data were filtered for significant hits from the one-way ANOVA and then subjected to z-transformation. Hierarchical clustering images were produced using Euclidean distance, 300 clusters and 10 rounds of iteration.
Also all further data processing for protein enrichment and extraction of protein sequences in positions −5 to +5 relative to the p-sites of interest for subsequent motif analysis was performed using RStudio with R v3.3.2 using the packages tidyverse and BioStrings. In order to study the sequence specificity of PP1c and PP2Ac on the protein level, position specific probability matrices, representing the relative occurrence for each amino acid surrounding pSer/pThr were produced by extracting sequence information in positions −5 to +5 for all PP1c/PP2Ac-sensitive class I p-sites. Next, the count for each amino acid in each position was divided by the total of all counts for a certain position, resulting in relative abundance. […] Importantly, amino acids with less than 25 counts in PP1-sensitive/-insensitive or PP2A-sensitive/insensitive comparisons were excluded. For calculating a heat map directly comparing PP1c against PP2Ac, these fold changes were divided. […] Obtained p-values were adjusted for multiple testing using the method of Benjamini and Hochberg.
PP1c/PP2Ac-sensitive class I sites were divided into three classes as illustrated for PP1c in Supplementary Fig. 4c. […]

[2] = molecular target: T1, PP2Ac (Homo sapiens, UniProt P67775); assay: Phosphoproteome dephosphorylation assay of HeLa Kyoto lysate with recombinant PP2Ac (TMT phosphoproteomics); assay type: biochemical; details: 1 µM recombinant phosphatase, 1 h at 30 °C, 20 nM Calyculin A, three replicates
T1 construct: purchased Cayman Chemical 10011237
Method: as §1
Treated lysates were reduced (10 mM DTT, 30 °C, 30 min) and alkylated (50 mM chloroacetamide, room temperature, 30 min, in the dark), and then diluted to 1.3 M urea using 40 mM Tris-HCl (pH 7.6). […]

T1 sequence (P67775 1-308 limits assumed): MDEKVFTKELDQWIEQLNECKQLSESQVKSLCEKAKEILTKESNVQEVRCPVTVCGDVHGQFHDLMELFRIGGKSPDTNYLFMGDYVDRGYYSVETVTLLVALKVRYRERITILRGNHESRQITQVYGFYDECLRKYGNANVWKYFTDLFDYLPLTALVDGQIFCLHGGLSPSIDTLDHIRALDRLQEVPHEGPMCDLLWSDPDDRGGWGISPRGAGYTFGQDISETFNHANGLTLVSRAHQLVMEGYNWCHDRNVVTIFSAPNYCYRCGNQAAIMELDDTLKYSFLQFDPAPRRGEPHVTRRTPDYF

share of substrates specific to the phosphatase [1]	number of class I p-sites dephosphorylated by PP2A [2]	Substance	number of specific sequences (cluster size) [1]
24%	1840 p-sites	PP2Ac: His-tagged recombinant PPP2CA ΔL309, purchased from Cayman Chemical	663 sequences
28%	–	PP1c: recombinant catalytic subunit of PP1	777 sequences
